The values that follow come from patent US10525041B2, “Fluoroalkyl-substituted aryltriazole derivatives and uses thereof” (BAYER PHARMA AKTIENGESELLSCHAFT, priority 2016, dated 2020).

One experiment addresses T1, human V1a receptor (Homo sapiens, UniProt P37288).
T1 construct: expressed in transfected cells; host or cells: CHO K1 (ATCC), also stably transfected with a modified aequorin
The experiment in a line: Cellular in vitro assay for vasopressin receptor activity, V1a cell line (aequorin luminescence). The format is cell-based. The note with it: for IC50: CHO cell line transfected with human V1a receptor, agonist [Arg8]-vasopressin at EC50 concentration, read-out: IC50hV1a; for ratio IC50 hV2/hV1a: ratio of the IC50 on human V2 to the IC50 on human V1a. Put shortly: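 CHO K1 cells stably expressing human V1a receptor with aequorin photoprotein, loaded overnight with coelenterazine. Compounds preincubated 10 min at various concentrations, then challenged with [Arg^8]-vasopressin at EC50 concentration. Calcium-driven luminescence read immediately; IC50 values derived.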

A further experiment has as its target T2, human V2 receptor (Homo sapiens, UniProt P30518).
T2 construct: expressed in transfected cells; host or cells: CHO K1 (ATCC) line expressing firefly luciferase under a CRE-responsive promoter
The experiment in a line: Cellular in vitro assay for vasopressin receptor activity, V2 cell line (CRE-luciferase). The following applies: CHO cell line transfected with human V2 receptor; agonist [Arg8]-vasopressin at EC50 concentration, 3 hours; read-out: IC50hV2. The format is cell-based.

T2 sequence (P30518 whole entry): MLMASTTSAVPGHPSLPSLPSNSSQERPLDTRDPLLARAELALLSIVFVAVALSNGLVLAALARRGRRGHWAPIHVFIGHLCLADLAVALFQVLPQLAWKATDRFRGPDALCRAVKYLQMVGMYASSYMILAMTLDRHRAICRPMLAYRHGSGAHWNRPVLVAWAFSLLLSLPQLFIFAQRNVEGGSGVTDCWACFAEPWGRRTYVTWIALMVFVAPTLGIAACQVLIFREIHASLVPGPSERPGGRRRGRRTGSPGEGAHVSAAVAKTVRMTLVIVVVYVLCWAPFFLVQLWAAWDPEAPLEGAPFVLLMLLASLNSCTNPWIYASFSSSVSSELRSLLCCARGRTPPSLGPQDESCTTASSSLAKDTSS
T1 sequence (P37288 whole entry): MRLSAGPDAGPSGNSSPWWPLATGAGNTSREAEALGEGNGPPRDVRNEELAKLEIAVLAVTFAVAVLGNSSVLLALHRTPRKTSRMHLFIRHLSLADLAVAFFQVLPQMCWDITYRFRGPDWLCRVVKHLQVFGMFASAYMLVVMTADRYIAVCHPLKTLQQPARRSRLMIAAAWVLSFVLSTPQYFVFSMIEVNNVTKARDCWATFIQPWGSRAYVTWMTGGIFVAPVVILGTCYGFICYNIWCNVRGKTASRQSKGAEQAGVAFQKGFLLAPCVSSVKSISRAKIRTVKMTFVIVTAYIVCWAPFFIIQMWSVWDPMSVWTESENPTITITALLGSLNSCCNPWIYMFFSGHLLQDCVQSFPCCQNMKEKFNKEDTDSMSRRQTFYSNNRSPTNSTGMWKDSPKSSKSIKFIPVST

`CCOc1ccccc1-n1nc(Cn2nc(-c3ccc(Cl)cc3)n(C[C@H](O)C(F)(F)F)c2=O)nc1C(C)(F)F` [Example 67, 5-(4-Chlorophenyl)-2-{[5-(1,1-difluoroethyl)-1-(2-ethoxyphenyl)-1H-1,2,4-triazol-3-yl]methyl}-4-[(2S)-3,3,3-trifluoro-2-hydroxypropyl]-2,4-dihydro-3H-1,2,4-triazol-3-one]: at human V1a receptor, the IC50 was determined as 1.8 nM and the “ratio IC50 hV2/hV1a” value is given as 4.4. Also, the IC50 at human V2 receptor was found to be 7.85 nM.
Taken in the same sequence, the figures for `O=c1n(Cc2nc(C(F)F)n(-c3cccc(Cl)c3)n2)nc(-c2ccc(Cl)cc2)n1C[C@H](O)C(F)(F)F` [Example 50, 5-(4-Chlorophenyl)-2-{[1-(3-chlorophenyl)-5-(difluoromethyl)-1H-1,2,4-triazol-3-yl]methyl}-4-[(2S)-3,3,3-trifluoro-2-hydroxypropyl]-2,4-dihydro-3H-1,2,4-triazol-3-one] were 36 nM, 0.1 and 2.59 nM.
Taken in the same sequence, the figures for `CSc1ccccc1-n1nc(Cn2nc(-c3ccc(Cl)cc3)n(C[C@H](O)C(F)(F)F)c2=O)nc1C(C)(F)F` [Example 74, 5-(4-Chlorophenyl)-2-({5-(1,1-difluoroethyl)-1-[2-(methylsulfanyl)phenyl]-1H-1,2,4-triazol-3-yl}methyl)-4-[(2S)-3,3,3-trifluoro-2-hydroxypropyl]-2,4-dihydro-3H-1,2,4-triazol-3-one] were 1.4 nM, 0.7 and 0.98 nM.
Taken in the same sequence, the figures for `CC(F)c1nc(Cn2nc(-c3ccc(Cl)cc3)n(C[C@H](O)C(F)(F)F)c2=O)nn1-c1ccccc1C(F)(F)F` (single isomer, unassigned) [Example 23] were 3.75 nM, 8.8 and 33 nM.
On to `CCc1ccccc1-n1nc(Cn2nc(-c3ccc(Cl)cc3)n(C[C@H](O)C(F)(F)F)c2=O)nc1C(C)F` (single isomer, unassigned) [Example 30], for which the figures for the IC50 on human V1a receptor and on human V2 receptor were 1.85 nM and 1.9 nM, respectively. The “ratio IC50 hV2/hV1a” value on human V1a receptor is recorded as 1.0.
`CSc1ccccc1-n1nc(Cn2nc(-c3ccc(Cl)cc3)n(C[C@H](O)C(F)(F)F)c2=O)nc1C(C)F` (mixture of isomers) [Example 49, 5-(4-Chlorophenyl)-2-({5-[1-fluoroethyl]-1-[2-(methylsulfanyl)phenyl]-1H-1,2,4-triazol-3-yl}methyl)-4-[(2S)-3,3,3-trifluoro-2-hydroxypropyl]-2,4-dihydro-3H-1,2,4-triazol-3-one]: on human V1a receptor, the IC50 came to 0.85 nM and the “ratio IC50 hV2/hV1a” value stood at 0.5. For the same compound, the IC50 on human V2 receptor is 0.45 nM.
Take `CC(F)c1nc(Cn2nc(-c3ccc(Cl)cc3)n(C[C@H](O)C(F)(F)F)c2=O)nn1-c1ncccc1Cl` (single isomer, unassigned) [Example 21]: on human V1a receptor, the IC50 was determined as 1.55 nM and the “ratio IC50 hV2/hV1a” value is 8.1. Besides, at human V2 receptor, the IC50 stood at 12.5 nM.
Taken in the same sequence, the figures for `CC(F)c1nc(Cn2nc(-c3ccc(Cl)cc3)n(C[C@H](O)C(F)(F)F)c2=O)nn1-c1cnccc1Cl` (single isomer, unassigned) [Example 5] were 6.95 nM, 10.8 and 74.8 nM.
Taken in the same sequence, the figures for `CC(F)(F)c1nc(Cn2nc(-c3ccc(Cl)cc3)n(C[C@H](O)C(F)(F)F)c2=O)nn1-c1c(Cl)cccc1Cl` [Example 68, 5-(4-Chlorophenyl)-2-{[1-(2,6-dichlorophenyl)-5-(1,1-difluoroethyl)-1H-1,2,4-triazol-3-yl]methyl}-4-[(2S)-3,3,3-trifluoro-2-hydroxypropyl]-2,4-dihydro-3H-1,2,4-triazol-3-one] were 3.3 nM, 1.3 and 4.23 nM.
